{
  "source": "paper PMC8219695",
  "about": "(Nature Communications, 2021)",
  "key": {"mDOR": {"molecular_target": "T1, mDOR (Mus musculus, UniProt P32300)", "T1 construct": "expressed in transfected cells", "T1 sequence (P32300 whole entry)": "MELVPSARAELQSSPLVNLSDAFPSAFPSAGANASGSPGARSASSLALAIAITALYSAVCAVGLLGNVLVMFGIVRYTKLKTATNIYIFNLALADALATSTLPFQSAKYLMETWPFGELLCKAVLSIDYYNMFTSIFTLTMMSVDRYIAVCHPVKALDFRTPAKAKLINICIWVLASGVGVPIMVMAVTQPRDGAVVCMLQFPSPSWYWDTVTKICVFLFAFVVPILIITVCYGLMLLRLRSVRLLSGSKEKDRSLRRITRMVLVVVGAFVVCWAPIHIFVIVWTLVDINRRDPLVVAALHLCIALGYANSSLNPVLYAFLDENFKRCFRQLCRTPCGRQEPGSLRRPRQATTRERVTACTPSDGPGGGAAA", "assay": "CAMYEL BRET cAMP agonist assay at mDOR", "format": "cell-based", "details": "for Agonist activity of 7OH analogs at mDOR: single replicate values, Supplementary Figure 7B"}, "hDOR": {"molecular_target": "hDOR (Homo sapiens, UniProt P41143)", "sequence (P41143 whole entry)": "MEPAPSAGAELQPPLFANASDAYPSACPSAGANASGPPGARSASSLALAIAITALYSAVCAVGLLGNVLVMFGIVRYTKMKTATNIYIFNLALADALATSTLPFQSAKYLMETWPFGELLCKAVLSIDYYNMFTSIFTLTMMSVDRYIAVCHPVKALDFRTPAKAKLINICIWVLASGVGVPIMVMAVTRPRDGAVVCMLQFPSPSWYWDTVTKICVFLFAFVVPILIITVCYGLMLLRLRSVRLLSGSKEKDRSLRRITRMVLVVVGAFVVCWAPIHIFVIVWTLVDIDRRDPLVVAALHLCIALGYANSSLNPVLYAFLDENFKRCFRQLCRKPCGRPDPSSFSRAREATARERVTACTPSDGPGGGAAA", "assay": "CAMYEL BRET cAMP agonist assay at hDOR", "format": "cell-based", "details": "for Agonist activity of 7OH analogs at hDOR: single replicate values, Supplementary Figure 7A"}, "rKOR": {"molecular_target": "T2, rKOR (Rattus norvegicus, UniProt P34975)", "T2 construct": "expressed in transfected cells", "T2 sequence (P34975 whole entry)": "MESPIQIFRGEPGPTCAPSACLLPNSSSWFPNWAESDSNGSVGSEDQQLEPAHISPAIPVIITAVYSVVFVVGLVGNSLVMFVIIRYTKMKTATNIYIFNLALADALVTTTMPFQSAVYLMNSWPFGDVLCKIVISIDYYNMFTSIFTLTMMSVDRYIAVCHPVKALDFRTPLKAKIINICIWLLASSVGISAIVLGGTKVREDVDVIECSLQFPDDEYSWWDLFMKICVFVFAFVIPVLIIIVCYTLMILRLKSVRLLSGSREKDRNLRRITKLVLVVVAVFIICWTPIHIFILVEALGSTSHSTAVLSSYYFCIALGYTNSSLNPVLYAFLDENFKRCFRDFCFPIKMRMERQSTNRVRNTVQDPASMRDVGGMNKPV", "assay": "CAMYEL BRET cAMP agonist assay at rKOR", "format": "cell-based", "details": "individual replicates, Supplementary Figure 8B source data"}, "hKOR": {"molecular_target": "hKOR (Homo sapiens, UniProt P41145)", "sequence (P41145 whole entry)": "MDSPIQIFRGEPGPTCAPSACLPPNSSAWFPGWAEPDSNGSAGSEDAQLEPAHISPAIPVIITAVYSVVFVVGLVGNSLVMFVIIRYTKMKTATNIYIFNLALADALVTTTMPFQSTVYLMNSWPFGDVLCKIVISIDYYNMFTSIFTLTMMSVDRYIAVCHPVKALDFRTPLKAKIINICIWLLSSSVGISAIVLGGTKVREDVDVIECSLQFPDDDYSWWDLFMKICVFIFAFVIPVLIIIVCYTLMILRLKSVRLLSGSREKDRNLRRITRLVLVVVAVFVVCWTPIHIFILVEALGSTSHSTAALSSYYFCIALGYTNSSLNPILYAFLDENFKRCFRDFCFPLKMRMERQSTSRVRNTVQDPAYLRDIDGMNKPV", "assay": "CAMYEL BRET cAMP agonist assay at hKOR", "format": "cell-based", "details": "individual replicates, Supplementary Figure 8A source data"}, "CD1 mice": {"test_system": "CD1 mice", "assay": "Tail-flick antinociception in CD1 mice", "format": "in vivo, mouse", "details": "5 or 25 mg/kg s.c., CD1 mice, time course"}},
  "note": "Several values for one entry are separate records, joined by “and”; a condition that tells them apart may be missing. Equal values may be shown once.",
  "data": [
    {"molecule": "CC[C@@H]1CN2CC[C@@]3(O)C(=Nc4cc(Cl)cc(OC)c43)[C@@H]2C[C@@H]1/C(=C\\OC)C(=O)OC", "note": "[11-Cl-7OH (23), 11-Cl-7OH]", "values": [
      {"measurement": "Agonist activity of 7OH analogs at mDOR", "setting": "mDOR; Log[drug] (M) -6", "result": "24.5815 and 25.9676 and 37.4358 and 15.5242 and 17.7522 and 18.5933 and 15.1392 and 2.291 and 7.306"},
      {"measurement": "Agonist activity of 7OH analogs at mDOR", "setting": "mDOR; Log[drug] (M) -7", "result": "31.8669 and 29.4684 and 27.3279 and 35.1303 and 15.7738 and 14.2288 and -2.321 and 1.192 and 1.129"},
      {"measurement": "Agonist activity of 7OH analogs at mDOR", "setting": "mDOR; Log[drug] (M) -8", "result": "24.8631 and 32.1589 and 37.1926 and 12.9562 and 15.2093 and 7.166 and 10.5442 and -9.446 and 11.0136"},
      {"measurement": "Agonist activity of 7OH analogs at mDOR", "setting": "mDOR; Log[drug] (M) -9", "result": "33.463 and 29.5442 and 24.9953 and 13.5309 and 13.5578 and 8.893 and 29.4233"},
      {"measurement": "Agonist activity of 7OH analogs at mDOR", "setting": "mDOR; Log[drug] (M) -10", "result": "24.7821 and 18.2952 and 15.7891 and -5.277 and 4.222 and 6.7221 and 13.4439 and 1.454 and 8.443"},
      {"measurement": "Agonist activity of 7OH analogs at mDOR", "setting": "mDOR; Log[drug] (M) -11", "result": "28.0105 and 19.9828 and 19.4476 and 11.3847 and -1.66 and -5.157 and 5.226 and 0.03212 and 8.89"},
      {"measurement": "Agonist activity of 7OH analogs at mDOR", "setting": "mDOR; Log[drug] (M) -13", "result": "-1.931 and 4.676 and 0.1543 and -4.31 and 4.156 and 0.5113 and 7.987 and 3.883"},
      {"measurement": "Emax", "setting": "mDOR; mDOR cAMP BRET, positive control DPDPE", "result": "very low efficacy"},
      {"measurement": "Agonist activity of 7OH analogs at hDOR", "setting": "hDOR; Log[drug] (M) -5", "result": "17.1397 and 15.6735 and 17.1747 and 8.18 and -3.544 and 1.305 and 21.6642 and 15.0671 and 20.6929"},
      {"measurement": "Agonist activity of 7OH analogs at hDOR", "setting": "hDOR; Log[drug] (M) -6", "result": "30.6083 and 25.9231 and 32.3513 and 1.677 and 12.7082 and 9.625 and 17.2797 and 6.922 and 2.636"},
      {"measurement": "Agonist activity of 7OH analogs at hDOR", "setting": "hDOR; Log[drug] (M) -7", "result": "15.9329 and 22.4846 and 15.3548 and 1.086 and 2.267 and 6.255 and -1.22 and -1.151 and 2.37"},
      {"measurement": "Agonist activity of 7OH analogs at hDOR", "setting": "hDOR; Log[drug] (M) -8", "result": "13.6904 and 16.1168 and 10.9974 and 2.935 and -7.546 and 4.612 and 5.7671 and 0.4715 and 17.0267"},
      {"measurement": "Agonist activity of 7OH analogs at hDOR", "setting": "hDOR; Log[drug] (M) -9", "result": "23.852 and 14.4843 and 22.6626 and 18.4578 and 15.1232 and 4.553 and 18.1791 and 11.0147 and 18.7534"},
      {"measurement": "Agonist activity of 7OH analogs at hDOR", "setting": "hDOR; Log[drug] (M) -10", "result": "5.724 and 19.2021 and 4.266 and 3.553 and -1.827 and 11.1585 and 2.694 and 3.131 and 7.14"},
      {"measurement": "Agonist activity of 7OH analogs at hDOR", "setting": "hDOR; Log[drug] (M) -11", "result": "7.339 and 12.4107 and 20.099 and 7.6883 and 4.754 and 8.248 and 8.188 and 1.326 and 2.427"},
      {"measurement": "Agonist activity of 7OH analogs at hDOR", "setting": "hDOR; Log[drug] (M) -13", "result": "-6.485 and 2.218 and 4.267 and 9.369 and -0.6447 and 11.9855 and 0.02092 and 7.539 and 4.083"},
      {"measurement": "Emax", "setting": "hDOR; hDOR cAMP BRET, positive control DPDPE", "result": "very low efficacy"},
      {"measurement": "Agonist activity of 7OH analogs at rKOR", "setting": "rKOR; Log [drug](M) -5", "result": "7.778 and 10.9917 and 16.9019 and -6.188 and -1.8256 and 8.442 and 6.4374 and 16.0399 and 7.566"},
      {"measurement": "Agonist activity of 7OH analogs at rKOR", "setting": "rKOR; Log [drug](M) -6", "result": "8.066 and 4.412 and -3.244 and 6.747 and -4.426 and -2.321 and 10.6533 and 7.813 and 3.403"},
      {"measurement": "Agonist activity of 7OH analogs at rKOR", "setting": "rKOR; Log [drug](M) -7", "result": "11.5045 and -0.8261 and -10.6783 and 7.768 and -4.174 and 5.42 and 2.7074 and 2.952 and 8.478"},
      {"measurement": "Agonist activity of 7OH analogs at rKOR", "setting": "rKOR; Log [drug](M) -8", "result": "0.508 and -0.7332 and 4.656 and 8.713 and 2.1745 and 4.589 and 10.047 and 0.1108 and 9.912"},
      {"measurement": "Agonist activity of 7OH analogs at rKOR", "setting": "rKOR; Log [drug](M) -9", "result": "6.738 and 3.9698 and 11.9053 and 20.8557 and 20.3344 and 22.4492 and 3.132 and -0.673 and 0.03935"},
      {"measurement": "Agonist activity of 7OH analogs at rKOR", "setting": "rKOR; Log [drug](M) -10", "result": "7.8399 and 7.154 and 27.1145 and 5.225 and 8.778 and 7.65 and 0.6993 and -2.781 and 2.082"},
      {"measurement": "Agonist activity of 7OH analogs at rKOR", "setting": "rKOR; Log [drug](M) -11", "result": "20.1355 and 7.2112 and 5.419 and 15.9158 and 14.9773 and 3.289 and 5.031 and 2.5469 and 3.562"},
      {"measurement": "Agonist activity of 7OH analogs at rKOR", "setting": "rKOR; Log [drug](M) -13", "result": "2.6438 and 19.3085 and 15.1998 and 15.6888 and 12.292 and 1.7 and 4.489 and 13.3107 and 4.029"},
      {"measurement": "Agonist activity of 7OH analogs at hKOR", "setting": "hKOR; Log [drug](M) -5", "result": "9.026 and -5.895 and 4.248 and 11.9704 and 8.484 and 2.501 and -3.893 and 6.434 and -2.541"},
      {"measurement": "Agonist activity of 7OH analogs at hKOR", "setting": "hKOR; Log [drug](M) -6", "result": "-2.414 and -2.835 and -8.98 and 12.2163 and 1.484 and -5.782 and -0.574 and -6.895 and -9.704"},
      {"measurement": "Agonist activity of 7OH analogs at hKOR", "setting": "hKOR; Log [drug](M) -7", "result": "-11.1771 and -3.626 and -0.5883 and -1.763 and -7.04 and -2.623 and -4.522 and -13.931 and 0.01935"},
      {"measurement": "Agonist activity of 7OH analogs at hKOR", "setting": "hKOR; Log [drug](M) -8", "result": "2.99 and -4.136 and 1.141 and -3.765 and -7.282 and -9.586 and -2.533 and -2.303 and 3.7063"},
      {"measurement": "Agonist activity of 7OH analogs at hKOR", "setting": "hKOR; Log [drug](M) -9", "result": "-6.592 and -11.4451 and 3.708 and 3.417 and -6.737 and -11.3529 and 17.5943 and 11.6069 and 9.781"},
      {"measurement": "Agonist activity of 7OH analogs at hKOR", "setting": "hKOR; Log [drug](M) -10", "result": "-2.387 and -3.9069 and 3.049 and -10.4557 and -1.189 and 2.17 and 4.733 and 0.5961 and 8.633"},
      {"measurement": "Agonist activity of 7OH analogs at hKOR", "setting": "hKOR; Log [drug](M) -11", "result": "8.282 and -7.987 and 6.107 and 1.524 and -1.1871 and -6.8877 and 2.73 and 5.876 and 10.03"},
      {"measurement": "Agonist activity of 7OH analogs at hKOR", "setting": "hKOR; Log [drug](M) -13", "result": "4.46 and -4.721 and 0.2615 and 1.311 and -2.987 and 1.677 and 6.874 and 5.681 and 9.762"},
      {"measurement": "analgesic effect in tail-flick", "setting": "CD1 mice", "result": "no analgesic effect"}
    ]}
  ]
}
